Laboratory results from patent US8247211B2, “Glycopeptide antibiotics” (American Cyanamid Company, priority 2001, dated 2012).
In brackets after ≈: the same amount, converted by molar mass.

Tests used:
Test in all cases: In vitro antibacterial evaluation: minimum inhibitory concentration (MIC), broth dilution method
Type in all cases: cell-based
Staphylococcus sp. = settings: 18 hours at 35° C.
Outline: (§1)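 Using Muller-Hinton II […] and an inoculum of 5×10^5 CFU/mL, antibiotic dilutions from 64 down to 0.06 μg/mL were tested following NCCLS M7-A2. The MIC is the lowest concentration inhibiting growth, including in methicillin-, penicillin- or vancomycin-resistant clinical isolates.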

Escherichia coli [1] = tested on: Escherichia coli
Outline: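 Broth dilution per NCCLS M7-A2 in Muller-Hinton II […], inoculum 5×10^5 CFU/mL, antibiotic tested over 64-0.06 μg/mL. MIC is taken as the lowest concentration that inhibits growth. Panel includes recent clinical isolates resistant to methicillin, penicillin and/or vancomycin.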

Enterococcus sp. = tested on: Enterococcus sp.
Outline: as §1

Escherichia coli [2] = tested on: Escherichia coli; remark: listed apart in the source

Row | SMILES | MIC Coagulase Negative Staphylococcus (GC 4547) (Staphylococcus sp.) [µg/mL] | MIC Coagulase Negative Staphylococcus (GC 4547) (Staphylococcus sp.; broth dilution) [µg/mL] | MIC Coagulase Negative Staphylococcus (GC 4548) (Staphylococcus sp.) [µg/mL] | MIC Coagulase Negative Staphylococcus (GC 4548) (Staphylococcus sp.; broth dilution) [µg/mL] | MIC Coagulase Negative Staphylococcus (GC 4549) (Staphylococcus sp.) [µg/mL] | MIC Coagulase Negative Staphylococcus (GC 4549) (Staphylococcus sp.; broth dilution) [µg/mL] | MIC Coagulase Negative Staphylococcus (GC 4551) (Staphylococcus sp.) [µg/mL] | MIC Coagulase Negative Staphylococcus (GC 4551) (Staphylococcus sp.; broth dilution) [µg/mL] | MIC Staphylococcus aureus (ATCC 29213) (Staphylococcus sp.) [µg/mL] | MIC Staphylococcus aureus (ATCC 29213) (Staphylococcus sp.; broth dilution) [µg/mL] | MIC Staphylococcus aureus (GC 1131) (Staphylococcus sp.) [µg/mL] | MIC Staphylococcus aureus (GC 1131) (Staphylococcus sp.; broth dilution) [µg/mL] | MIC Staphylococcus aureus (GC 4541) (Staphylococcus sp.) [µg/mL] | MIC Staphylococcus aureus (GC 4541) (Staphylococcus sp.; broth dilution) [µg/mL] | MIC Staphylococcus aureus (GC 4542) (Staphylococcus sp.) [µg/mL] | MIC Staphylococcus aureus (GC 4542) (Staphylococcus sp.; broth dilution) [µg/mL] | MIC Staphylococcus aureus (GC 4544) (Staphylococcus sp.) [µg/mL] | MIC Staphylococcus aureus (GC 4544) (Staphylococcus sp.; broth dilution) [µg/mL] | MIC Staphylococcus aureus (GC 4545) (Staphylococcus sp.) [µg/mL] | MIC Staphylococcus aureus (GC 4545) (Staphylococcus sp.; broth dilution) [µg/mL] | other results
1 | CC(=O)OCC1OC(OC2C(CO)OC(Oc3ccc(CC4NC(=O)C(C(C)c5ccccc5)NC(=O)CNC(=O)C(CO)NC(=O)C(C(O)C5CNC(=N)N5C5OC(CO)C(O)C(O)C5O)NC(=O)C(C(O)C5CNC(=N)N5)NC4=O)cc3)C(O)C2O)C(O)C(OC(=O)CCC(C)C)C1O (stereo not drawn) [Example 270b, Cyclo[glycyl-β-methylphenylalanyl-O-[4-O-[6-O-acetyl-3-O-(4-methylpentanoyl)hexopyranosyl]hexopyranosyl]tyrosyl-3-(2-iminoimidazolidin-4-yl)seryl-3-(3-hexopyranosyl-2-iminoimidazolidin-4-yl)serylseryl]] | 4 (≈ 2.79 µM) | 4 (≈ 2.79 µM) | 4 (≈ 2.79 µM) | 4 (≈ 2.79 µM) | 4 (≈ 2.79 µM) | 4 (≈ 2.79 µM) | 4 (≈ 2.79 µM) | 4 (≈ 2.79 µM) | 8 (≈ 5.57 µM) | 8 (≈ 5.57 µM) | 8 (≈ 5.57 µM) | 8 (≈ 5.57 µM) | 8 (≈ 5.57 µM) | 8 (≈ 5.57 µM) | 8 (≈ 5.57 µM) | 8 (≈ 5.57 µM) | 8 (≈ 5.57 µM) | 8 (≈ 5.57 µM) | 4 (≈ 2.79 µM) | 4 (≈ 2.79 µM) | MIC Staphylococcus aureus-SMITH (GC 4543) (Staphylococcus sp.): 4 µg/mL (≈ 2.79 µM); MIC Staphylococcus aureus-SMITH (GC 4543) (Staphylococcus sp.; broth dilution): 4 µg/mL (≈ 2.79 µM); MIC Staphylococcus haemolyticus (GC 4546) (Staphylococcus sp.): 4 µg/mL (≈ 2.79 µM); MIC Staphylococcus haemolyticus (GC 4546) (Staphylococcus sp.; broth dilution): 4 µg/mL (≈ 2.79 µM); MIC Escherichia coli (GC 4559) (Escherichia coli [1]): >64 µg/mL; MIC Escherichia coli (GC 4560) (Escherichia coli [1]): 4 µg/mL (≈ 2.79 µM); MIC Enterococcus avium (GC 4558) (Enterococcus sp.): 32 µg/mL (≈ 22.3 µM); MIC Enterococcus faecalis (ATCC 29212) (Enterococcus sp.): 32 µg/mL (≈ 22.3 µM); MIC Enterococcus faecalis (GC 4553) (Enterococcus sp.): 32 µg/mL (≈ 22.3 µM); MIC Enterococcus faecalis (GC 4554) (Enterococcus sp.): 32 µg/mL (≈ 22.3 µM); MIC Enterococcus faecium (GC 2243) (Enterococcus sp.): 32 µg/mL (≈ 22.3 µM); MIC Enterococcus faecium (GC 4556) (Enterococcus sp.): 32 µg/mL (≈ 22.3 µM); MIC Enterococcus faecium (GC 4557) (Enterococcus sp.): 8 µg/mL (≈ 5.57 µM); MIC Escherichia coli (ATCC 25922) (Escherichia coli [2]): >64 µg/mL
2 | CC(C)CC(=O)OC1C(O)C(CO)OC(OC2C(CO)OC(Oc3ccc(CC4NC(=O)C(C(C)c5cccs5)NC(=O)CNC(=O)C(CO)NC(=O)C(C(O)C5CNC(=N)N5C5OC(CO)C(O)C(O)C5O)NC(=O)C(C(O)C5CNC(=N)N5)NC4=O)cc3)C(O)C2O)C1O (stereo not shown) [Example 265b] | 8 (≈ 5.77 µM) | 8 (≈ 5.77 µM) | 4 (≈ 2.89 µM) | 4 (≈ 2.89 µM) | 4 (≈ 2.89 µM) | 4 (≈ 2.89 µM) | 8 (≈ 5.77 µM) | 8 (≈ 5.77 µM) | 16 (≈ 11.5 µM) | 16 (≈ 11.5 µM) | 32 (≈ 23.1 µM) | 32 (≈ 23.1 µM) | 8 (≈ 5.77 µM) | 8 (≈ 5.77 µM) | 8 (≈ 5.77 µM) | 8 (≈ 5.77 µM) | 8 (≈ 5.77 µM) | 8 (≈ 5.77 µM) | 8 (≈ 5.77 µM) | 8 (≈ 5.77 µM) | MIC Staphylococcus aureus-SMITH (GC 4543) (Staphylococcus sp.): 8 µg/mL (≈ 5.77 µM); MIC Staphylococcus aureus-SMITH (GC 4543) (Staphylococcus sp.; broth dilution): 8 µg/mL (≈ 5.77 µM); MIC Staphylococcus haemolyticus (GC 4546) (Staphylococcus sp.): 8 µg/mL (≈ 5.77 µM); MIC Staphylococcus haemolyticus (GC 4546) (Staphylococcus sp.; broth dilution): 8 µg/mL (≈ 5.77 µM); MIC Escherichia coli (GC 4559) (Escherichia coli [1]): 64 µg/mL (≈ 46.2 µM); MIC Escherichia coli (GC 4560) (Escherichia coli [1]): 4 µg/mL (≈ 2.89 µM); MIC Enterococcus avium (GC 4558) (Enterococcus sp.): 64 µg/mL (≈ 46.2 µM); MIC Enterococcus faecalis (ATCC 29212) (Enterococcus sp.): 64 µg/mL (≈ 46.2 µM); MIC Enterococcus faecalis (GC 4553) (Enterococcus sp.): 64 µg/mL (≈ 46.2 µM); MIC Enterococcus faecalis (GC 4554) (Enterococcus sp.): >64 µg/mL; MIC Enterococcus faecium (GC 2243) (Enterococcus sp.): 64 µg/mL (≈ 46.2 µM); MIC Enterococcus faecium (GC 4556) (Enterococcus sp.): 64 µg/mL (≈ 46.2 µM); MIC Enterococcus faecium (GC 4557) (Enterococcus sp.): 8 µg/mL (≈ 5.77 µM); MIC Enterococcus faecalis (GC 2242) (Enterococcus sp.; broth dilution, 18 hours at 35° C., strain GC 2242): 4 µg/mL (≈ 2.89 µM); MIC Enterococcus faecalis (GC 2691) (Enterococcus sp.; broth dilution, 18 hours at 35° C., strain GC 2691): 64 µg/mL (≈ 46.2 µM); MIC Escherichia coli (ATCC 25922) (Escherichia coli [2]): >64 µg/mL
